Test results: the Deep4Chem optical property database
One block for each compound: values may come before it.

Experiment: photoluminescence quantum yield (fraction); solvent given as SMILES

Structure (SMILES): CCC1(CC)c2cc(/C=C/c3cc(C#N)c(/C=C/c4ccc5c(c4)C(CC)(CC)c4cc(N6c7ccccc7Sc7ccccc76)ccc4-5)cc3C#N)ccc2-c2ccc(N3c4ccccc4Sc4ccccc43)cc21
- photoluminescence quantum yield (in C1CCOC1): 0.01
- photoluminescence quantum yield (in CCCCCC): 0.11
- photoluminescence quantum yield (in Cc1ccccc1): 0.06
- photoluminescence quantum yield (in ClCCl): 0.01

Structure (SMILES): N#C/C=C/c1ccc2ccc3cccc4ccc1c2c34
- photoluminescence quantum yield (in C1CCOC1): 0.72
- photoluminescence quantum yield (in C1COCCO1): 0.63
- photoluminescence quantum yield (in CC#N): 0.32
- photoluminescence quantum yield (in CC(C)=O): 0.62
- photoluminescence quantum yield (in CCCCCC): 0.53
- photoluminescence quantum yield (in CCOC(C)=O): 0.62
- photoluminescence quantum yield (in CO): 0.44
- photoluminescence quantum yield (in Cc1ccccc1): 0.55

Structure (SMILES): CCCCCCc1ccc(-n2c3[n+](c4c5ccccc5c5ccccc5c42)[B-](C)(C)c2ccc4ccccc4c2-3)cc1
- photoluminescence quantum yield (in C1CCOC1): 0.11
- photoluminescence quantum yield (in CC#N): 0.07
- photoluminescence quantum yield (in Cc1ccccc1): 0.16
- photoluminescence quantum yield (in ClCCl): 0.08

Structure (SMILES): CCCCCCCCCCCCCCCCOc1cc(C#Cc2ccc3ccccc3c2-c2c(C#Cc3cc(OCCCCCCCCCCCCCCCC)c(C#Cc4ccc(C=C(C#N)C#N)cc4)cc3OCCCCCCCCCCCCCCCC)ccc3ccccc23)c(OCCCCCCCCCCCCCCCC)cc1C#Cc1ccc(C=C(C#N)C#N)cc1
- photoluminescence quantum yield (in Brc1ccccc1): 0.63
- photoluminescence quantum yield (in C1CCCCC1): 0.99
- photoluminescence quantum yield (in C1CCOC1): 0.3
- photoluminescence quantum yield (in C1COCCO1): 0.94
- photoluminescence quantum yield (in CCCCCC): 0.98
- photoluminescence quantum yield (in CCCCCCCCO): 0.52
- photoluminescence quantum yield (in CCCCOCCCC): 0.97
- photoluminescence quantum yield (in CCOC(C)=O): 0.37
- photoluminescence quantum yield (in CCOCC): 0.87
- photoluminescence quantum yield (in Cc1ccccc1): 0.95
- photoluminescence quantum yield (in ClC(Cl)(Cl)Cl): 0.95
- photoluminescence quantum yield (in ClC(Cl)Cl): 0.81
- photoluminescence quantum yield (in ClCCl): 0.23

Structure (SMILES): CC/[NH+]=c1\cc2oc3cc(NC)c(C)cc3c(-c3ccccc3C(=O)OCC)c-2cc1C
- photoluminescence quantum yield (in CCO): 0.94
- photoluminescence quantum yield (in O): 0.95

Structure (SMILES): CC(C)(C)NC(=O)c1ccc(-c2ccccc2)c2ccc3c4ccccc4c4ccccc4c3c12
- photoluminescence quantum yield (in ClCCl): 0.08

Structure (SMILES): CC[N+]1(CC)CN2C(=N1)C(C(=O)O)=Cc1c2ccc2ccccc12
- photoluminescence quantum yield (in O): 0.711

Structure (SMILES): c1ccc(-c2nnc(-c3ccc(N4c5ccccc5N(c5ccccc5)c5ccccc54)cc3)o2)cc1
- photoluminescence quantum yield (in Cc1ccccc1): 0.12
- photoluminescence quantum yield (in c1cc(-n2c3ccccc3c3ccccc32)cc(-n2c3ccccc3c3ccccc32)c1): 0.45

Structure (SMILES): CCCCCCCC1=C(C)C(=O)n2c1cc1[nH]c(C(=O)OC)c(C)c1c2=O
- photoluminescence quantum yield (in C1CCCCC1): 0.02
- photoluminescence quantum yield (in CO): 0.73
- photoluminescence quantum yield (in CS(C)=O): 0.83
- photoluminescence quantum yield (in ClC(Cl)Cl): 0.52
- photoluminescence quantum yield (in c1ccccc1): 0.1

Structure (SMILES): CCN(CC)c1ccc2cc(/C=C/C(=O)c3cc4ccc(N(CC)CC)cc4oc3=O)c(=O)oc2c1
- photoluminescence quantum yield (in C1CCOC1): 0.53
- photoluminescence quantum yield (in C1COCCO1): 0.58
- photoluminescence quantum yield (in CC#N): 0.11
- photoluminescence quantum yield (in CC(C)=O): 0.27
- photoluminescence quantum yield (in CCO): 0.07
- photoluminescence quantum yield (in CCOC(C)=O): 0.57
- photoluminescence quantum yield (in CN(C)C=O): 0.01
- photoluminescence quantum yield (in CS(C)=O): 0.06
- photoluminescence quantum yield (in Cc1ccccc1): 0.68
- photoluminescence quantum yield (in ClC(Cl)Cl): 0.5
- photoluminescence quantum yield (in ClCCl): 0.59
- photoluminescence quantum yield (in O): 0

Structure (SMILES): COCCC1=Cc2nc1ccc1[nH]c(cc1CCOC)c1nc(c(NC(=O)CCCC(=O)O)cc3[nH]c2cc3CCOC)C(CCOC)=C1
- photoluminescence quantum yield (in Cc1ccccc1): 0.15

Structure (SMILES): CCCCCCN(CCCCCC)c1ccc(C#Cc2ccc(C#Cc3ccc(-c4ccc(C#Cc5ccc(C#Cc6ccc(N(CCCCCC)CCCCCC)cc6)cc5)cc4)cc3)cc2)cc1
- photoluminescence quantum yield (in Cc1ccccc1): 0.82

Structure (SMILES): CCCCCCCCCCCCC(CCCCCCCCCC)Cn1c2cc(/C=C/C=C(C#N)C#N)c3cccc4c5cccc6c(/C=C/C=C(C#N)C#N)cc1c(c65)c2c34 (stereo unspecified)
- photoluminescence quantum yield (in C1CCCCC1): 0.044
- photoluminescence quantum yield (in CC#N): 0.061
- photoluminescence quantum yield (in Cc1ccccc1): 0.073
- photoluminescence quantum yield (in ClCCl): 0.067

Structure (SMILES): COc1cc2c(cc1-c1ccc(C#N)cc1)Cc1c3c(c4c(c1-2)-c1cc(OC)c(-c2ccc(C#N)cc2)cc1C4)C(=O)N(CCC(C)C)C3=O
- photoluminescence quantum yield (in C1CCOC1): 0.51

Structure (SMILES): CC1CCC(=CS/C=C/c2ccc(/C=C/SC=C3CCC(C)CC3)cc2)CC1 (stereo unspecified)
- photoluminescence quantum yield (in ClCCl): 0.027

Structure (SMILES): Cc1nc2cc3c4c(cccc4c2o1)C(=O)OC3=O
- photoluminescence quantum yield (in CCO): 0.1

Structure (SMILES): C(#Cc1cc2ccc3cc(C#Cc4ccccc4)cc4ccc(c1)c2c34)c1ccccc1
- photoluminescence quantum yield (in Cc1ccccc1): 0.29

Structure (SMILES): CC1(C)c2ccccc2N(c2ccc3c(c2)c2cc(N4c5ccccc5C(C)(C)c5ccccc54)ccc2c2nc4ccccc4nc32)c2ccccc21
- photoluminescence quantum yield (in c1cc(-c2cccc(-n3c4ccccc4c4ccccc43)c2)cc(-n2c3ccccc3c3ccccc32)c1): 0.84

Structure (SMILES): CC(C)(C)c1ccc(-c2nnc(-c3c(-n4c5ccccc5c5ccccc54)c(-n4c5ccccc5c5ccccc54)c(-n4c5ccccc5c5ccccc54)c(-n4c5ccccc5c5ccccc54)c3-n3c4ccccc4c4ccccc43)o2)cc1
- photoluminescence quantum yield (in Cc1ccccc1): 0.13

Structure (SMILES): COc1cc(OC)cc(C2=C3C(C)=C(I)C(C)=[N+]3[B-](F)(F)n3c(/C=C/c4ccsc4)c(I)c(C)c32)c1
- photoluminescence quantum yield (in C1CCOC1): 0.3
- photoluminescence quantum yield (in CS(C)=O): 0.15
- photoluminescence quantum yield (in ClCCl): 0.4

Structure (SMILES): CC1(C)C(/C=C/C=C/C=C/C=C2/N(CCCCCC(=O)O)c3ccc(S(=O)(=O)[O-])cc3C2(C)C)=[N+](CCCCS(=O)(=O)[O-])c2ccc(S(=O)(=O)[O-])cc21
- photoluminescence quantum yield (in CO): 0.55
- photoluminescence quantum yield (in O): 0.3

Structure (SMILES): COC(=O)CNC(=O)c1nc2c(N(C)C)nc(N(C)C)nc2n1Cc1ccccc1
- photoluminescence quantum yield (in C1COCCO1): 0.95
- photoluminescence quantum yield (in CC#N): 0.95
- photoluminescence quantum yield (in CO): 0.9
- photoluminescence quantum yield (in ClCCl): 0.91

Structure (SMILES): Cc1cc(C)c(B(c2c(C)cc(C)cc2C)N2c3ccccc3C3(c4ccccc4-c4ccccc43)c3ccccc32)c(C)c1
- photoluminescence quantum yield (in C1CCCCC1): 0.978
- photoluminescence quantum yield (in Cc1ccccc1): 0.942
- photoluminescence quantum yield (in ClCCl): 0.539

Structure (SMILES): CCCc1c(C(=O)c2ccc3c4c(cccc24)-c2cccc4c2C3CC=C4)c2ccc3cccc4c5cccc6ccc1c(c65)c2c34 (stereo unspecified)
- photoluminescence quantum yield (in ClCCl): 0.058

Structure (SMILES): C1=Cc2ccccc2C(=Cc2ccc(-c3ccc(C=C4c5ccccc5C=Cc5ccccc54)cc3)cc2)c2ccccc21
- photoluminescence quantum yield (in C1CCOC1): 0.00012

Structure (SMILES): CCCCCCN1C(=O)c2cc(-c3ccc(-n4c5ccccc5c5ccccc54)cc3)c(-c3ccc(-n4c5ccccc5c5ccccc54)cc3)cc2C1=O
- photoluminescence quantum yield (in ClC(Cl)Cl): 0.78
- photoluminescence quantum yield (in c1ccc2c(c1)c1ccccc1n2-c1ccc(-c2ccc(-n3c4ccccc4c4ccccc43)cc2)cc1): 0.7

Structure (SMILES): CC[N+]1(CC)CN2C(=N1)C(C(=O)O)=Cc1cc(F)ccc12
- photoluminescence quantum yield (in O): 0.344

Structure (SMILES): [NH3+]C(Cc1ccc(O)c(O)c1)C(=O)[O-] (stereo unspecified)
- photoluminescence quantum yield (in O): 0.075

Structure (SMILES): c1ccc(-c2nn(-c3ccccc3)c3nc4ccc(N(c5ccccc5)c5ccccc5)cc4cc23)cc1
- photoluminescence quantum yield (in C1CCCCC1): 0.76
- photoluminescence quantum yield (in C1CCOC1): 0.7
- photoluminescence quantum yield (in CC#N): 0.46
- photoluminescence quantum yield (in CC(C)=O): 0.59
- photoluminescence quantum yield (in CCCCCl): 0.7
- photoluminescence quantum yield (in CCCCOCCCC): 0.76
- photoluminescence quantum yield (in CN(C)C=O): 0.5

Structure (SMILES): COc1ccc(C2=CC3=C(c4c(C)cc(C)cc4C)c4cc(-c5ccc(OC)cc5)c(-c5ccc(OC)cc5)n4[B-](F)(F)[N+]3=C2c2ccc(OC)cc2)cc1
- photoluminescence quantum yield (in C1CCCCC1): 0.64
- photoluminescence quantum yield (in C1CCOC1): 0.42
- photoluminescence quantum yield (in CC#N): 0.24
- photoluminescence quantum yield (in Cc1ccccc1): 0.51
- photoluminescence quantum yield (in ClCCl): 0.42

Structure (SMILES): CCOC(=O)c1ccc2c(c1)sc1c3ccc(C(=O)OCC)cc3n(C)c21
- photoluminescence quantum yield (in CCCO): 0.65

More lines, now with the values ahead:

- photoluminescence quantum yield (in C1CCCCC1): 0.852
- photoluminescence quantum yield (in CCOC(C)=O): 0.733
- photoluminescence quantum yield (in CN(C)C=O): 0.562
- photoluminescence quantum yield (in CO): 0.428
- photoluminescence quantum yield (in ClCCl): 0.827
Structure (SMILES): CCN(CC)c1ccc2c(c1)oc(=O)c1c(C)nc3c(c(C)nn3-c3ccccc3)c12

- photoluminescence quantum yield (in ClCCl): 0.48
Structure (SMILES): Fc1ccc(-c2c3ccccc3nc3cc4ccccc4cc23)cc1

- photoluminescence quantum yield (in C1CCCCC1): 0.23
- photoluminescence quantum yield (in CC#N): 0.26
- photoluminescence quantum yield (in CO): 0.25
- photoluminescence quantum yield (in ClCCl): 0.31
Structure (SMILES): COc1c2ccccc2c(OC)c2c1c1c(C)ccc(OC)c1n2C

- photoluminescence quantum yield (in ClCCl): 0.21
Structure (SMILES): COc1ccc(-c2cc(-c3ccccc3)nn2C)cc1

- photoluminescence quantum yield (in ClCCl): 0.24
Structure (SMILES): c1ccc(-p2c3ccccc3c3sc4ccccc4c32)cc1 (stereo unspecified)

- photoluminescence quantum yield (in ClCCl): 0.24
Structure (SMILES): CN(C)c1ccc(/C=C/c2cnc(C#Cc3ccc(C#N)cc3)o2)cc1

- photoluminescence quantum yield (in ClCCl): 0.63
Structure (SMILES): CCCCn1c(-c2ccc(-c3nnc(-c4ccc(-c5nc6ccccc6n5CCCC)cc4)o3)cc2)nc2ccccc21

- photoluminescence quantum yield (in CC#N): 0.558
- photoluminescence quantum yield (in CCO): 0.048
- photoluminescence quantum yield (in CN(C)C=O): 0.041
- photoluminescence quantum yield (in CS(C)=O): 0
- photoluminescence quantum yield (in ClCCl): 0.28
Structure (SMILES): c1ccc(-c2csc(-c3ccncc3)n2)cc1

- photoluminescence quantum yield (in CCO): 0.35
- photoluminescence quantum yield (in ClC(Cl)Cl): 0.35
- photoluminescence quantum yield (in ClCCl): 0.6
Structure (SMILES): CCN(CC)c1ccc2c(-c3ccccc3C(=O)O)c3c([o+]c2c1)/C(=C/Nc1ccccc1)CCC3

- photoluminescence quantum yield (in ClC(Cl)Cl): 0.18
Structure (SMILES): CCCCCCN1C(=O)c2cccc3c(-c4ccc(Cl)s4)ccc(c23)C1=O

- photoluminescence quantum yield (in CC#N): 0.3
Structure (SMILES): Oc1ccc2ccccc2c1/C=N/c1ccccc1/N=C/c1c(O)ccc2ccccc12

- photoluminescence quantum yield (in ClCCl): 0.00114
Structure (SMILES): CCOC(=O)C1=C(C(=O)OCC)C2(c3ccccc3-c3ccccc32)[C@@H](c2ccc(Cl)cc2)C=C2c3cc(OC)c(OC)cc3CCN21

- photoluminescence quantum yield (in ClCCl): 0.01
Structure (SMILES): Clc1ccc(/C=C/c2cnc3ccccc3n2)cc1

- photoluminescence quantum yield (in CS(C)=O): 0.31
Structure (SMILES): Cc1cccn2c1cc1c3ccccc3nc(-c3ccc(Cl)o3)c12

- photoluminescence quantum yield (in O): 0.31
Structure (SMILES): Cc1ccccc1C1=C2C=CC(=[N+](C)C)C=C2[Si](C)(C)c2cc(N(C)C)ccc21

- photoluminescence quantum yield (in ClCCl): 0.1
Structure (SMILES): COc1ccc(/C=C/c2cc(/C=C/c3ccc(OC)cc3)nc(/C=C/c3ccc(N(c4ccccc4)c4ccccc4)cc3)n2)cc1

- photoluminescence quantum yield (in ClCCl): 0.93
Structure (SMILES): O=C1c2cc3ccccc3cc2C2=Nc3ccc4ccccc4[n+]3[B-](F)(F)N12

- photoluminescence quantum yield (in CC#N): 0.41
Structure (SMILES): CCOC(=O)c1c2c3c(ccc(F)c3c3cc4ccccc4cc13)N(C)C2=O

- photoluminescence quantum yield (in C1CCCCC1): 0.04
- photoluminescence quantum yield (in CO): 0.01
Structure (SMILES): Clc1ccc(/C=C/c2nc3ccccc3s2)cc1

- photoluminescence quantum yield (in CC#N): 0.51
- photoluminescence quantum yield (in CO): 0.02
- photoluminescence quantum yield (in ClCCl): 0.75
Structure (SMILES): COc1cccc(-c2[nH]c(=O)n3c2-c2ccccc2C3=O)c1O
